Experimental data as given in ChEMBL document CHEMBL1129386, “Synthesis and immunostimulating properties of lipophilic ester and ether muramyl peptide derivatives” (J Med Chem, 1996).

System: RAW264.7
Assay: Concentration of compound which increased the nitrite production in RAW 264.7 mouse monocyte-macrophage line
Type: functional, cell-based

## CC(=O)N[C@@H]1[C@@H](OC(C)C(=O)N[C@@H](C)C(=O)N[C@H](CCC(=O)N[C@@H](C)C(=O)O[C@H]2CC[C@@]3(C)C(=CC[C@H]4[C@@H]5CC[C@H]([C@H](C)CCCC(C)C)[C@@]5(C)CC[C@@H]43)C2)C(N)=O)[C@H](O)[C@@H](CO)O[C@@H]1O (stereo partly specified)
  Concentration: 1 µM
